This assay addresses T1, F508delCFTR (Homo sapiens, UniProt P13569, DEL508-508).
T1 construct: expressed in transfected cells; host or cells: CFBE4lo-F508delCFTR-HRP cells (human lung derived epithelial cell line, doxycycline-inducible)
The assay can be described thus: Cell Surface Expression-Horse Radish Peroxidase (CSE-HRP) Assay. The note with it: for EC50: CFBE4lo-F508delCFTR-HRP cells, 18-24 hours at 33° C.; for Emax / Maximum % activity (with co-corrector): maximum at any tested concentration (up to 20 μM), normalized to on-plate positive control (2 μM co-corrector); for Maximum % activity (with co-corrector): with co-corrector 2 μM. The assay is classed as cell-based. The method, boiled down: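 Surface F508delCFTR measured via exofacial-loop HRP luminescence (luminol) in doxycycline-induced (0.5 μg/mL, 72 h) CFBE4lo− cells. Compounds, 20 μM top, 3-fold, 8 concentrations, ±2 μM co-corrector, incubated 18-24 h at 33° C; EC50 by variable-slope sigmoidal fit of % activity relative to positive control, three replicate plates.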

The mark [1] stands for this setting: test compound without co-corrector, HRP luminescence readout, read-out: EC50 (without co-corrector).
Setting [2] is: test compound without co-corrector.
The mark [3] stands for this setting: with co-corrector 2 μM 3-[(2R,4R)-4-({[1-(2,2-difluoro-1,3-benzodioxol-5-yl)cyclopropyl]carbonyl}amino)-7-methoxy-3,4-dihydro-2H-chromen-2-yl]benzoic acid, read-out: EC50 (with co-corrector).

Structures are written as SMILES. Where two headings read alike, the source gives them in different places. Some results are limits rather than exact numbers.

T1 sequence (P13569 with tags, fused parts or gaps DEL508-508): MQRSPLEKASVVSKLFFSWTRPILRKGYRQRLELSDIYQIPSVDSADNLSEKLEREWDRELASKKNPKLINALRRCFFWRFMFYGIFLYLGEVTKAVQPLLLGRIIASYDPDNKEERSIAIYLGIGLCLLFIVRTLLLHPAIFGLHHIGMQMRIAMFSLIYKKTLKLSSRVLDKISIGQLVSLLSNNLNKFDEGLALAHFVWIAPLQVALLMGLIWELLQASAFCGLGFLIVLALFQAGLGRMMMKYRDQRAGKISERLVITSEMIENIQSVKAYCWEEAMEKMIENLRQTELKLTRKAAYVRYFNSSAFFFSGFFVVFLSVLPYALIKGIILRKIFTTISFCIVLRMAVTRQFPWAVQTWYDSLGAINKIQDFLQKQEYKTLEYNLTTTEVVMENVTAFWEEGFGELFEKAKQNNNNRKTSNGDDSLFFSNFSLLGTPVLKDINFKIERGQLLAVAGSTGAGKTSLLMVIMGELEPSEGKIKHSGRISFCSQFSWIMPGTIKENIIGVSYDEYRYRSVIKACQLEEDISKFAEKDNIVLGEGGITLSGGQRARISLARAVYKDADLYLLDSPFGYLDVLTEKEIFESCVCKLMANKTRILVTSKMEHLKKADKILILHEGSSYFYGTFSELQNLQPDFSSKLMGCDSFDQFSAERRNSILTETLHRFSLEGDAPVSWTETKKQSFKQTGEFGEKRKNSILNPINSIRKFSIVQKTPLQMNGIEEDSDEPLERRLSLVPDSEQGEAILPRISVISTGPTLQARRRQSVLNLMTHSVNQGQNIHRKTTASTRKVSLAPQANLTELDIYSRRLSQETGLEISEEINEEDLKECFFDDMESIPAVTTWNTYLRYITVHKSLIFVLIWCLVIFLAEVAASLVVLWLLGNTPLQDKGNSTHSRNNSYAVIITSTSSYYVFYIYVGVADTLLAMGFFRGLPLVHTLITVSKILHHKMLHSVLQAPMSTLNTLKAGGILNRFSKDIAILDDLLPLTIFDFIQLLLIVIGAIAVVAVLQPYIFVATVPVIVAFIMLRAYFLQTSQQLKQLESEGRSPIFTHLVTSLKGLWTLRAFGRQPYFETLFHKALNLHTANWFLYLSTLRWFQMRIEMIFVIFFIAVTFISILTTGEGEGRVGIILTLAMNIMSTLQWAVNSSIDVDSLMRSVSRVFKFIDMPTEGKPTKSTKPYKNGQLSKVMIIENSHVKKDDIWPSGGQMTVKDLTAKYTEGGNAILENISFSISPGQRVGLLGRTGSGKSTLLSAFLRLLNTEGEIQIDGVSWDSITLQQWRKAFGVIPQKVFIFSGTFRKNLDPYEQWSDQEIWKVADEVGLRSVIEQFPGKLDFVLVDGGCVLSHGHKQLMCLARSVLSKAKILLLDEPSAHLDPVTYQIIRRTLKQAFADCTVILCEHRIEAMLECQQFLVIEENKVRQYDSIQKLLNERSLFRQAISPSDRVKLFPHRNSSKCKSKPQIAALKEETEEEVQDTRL

Take `COc1ccc(Cl)c2c1C(C(=O)NS(=O)(=O)c1cccc3ccccc13)CO2` (stereo not drawn) [Example 63, 7-chloro-4-methoxy-N-(naphthalene-1-sulfonyl)-2,3-dihydro-1-benzofuran-3-carboxamide]: the “Maximum % activity (with co-corrector)” value is “+++ (≥350)”. The concentration for a half-maximal effect (EC50) under setting [1] was 3 to 10 µM. The Emax under setting [2] was not below 150%. The EC50 under setting [3] was less than 3 µM.

Regarding `COc1ccc(C2CC2)c2c1C(C(=O)NS(=O)(=O)c1cccc3ccccc13)CCO2` (stereo not drawn) [Example 64, 8-cyclopropyl-5-methoxy-N-(naphthalene-1-sulfonyl)-3,4-dihydro-2H-1-benzopyran-4-carboxamide], the “Maximum % activity (with co-corrector)” value was “+++ (≥350)”. The EC50 under setting [1] lay within 3 to 10 µM. The molecule also returned an Emax under setting [2] not below 150%. For the same molecule, the EC50 under setting [3] was less than 3 µM.

For the molecule `COc1ccc(C2CCC2)c2c1[C@@H](C(=O)NS(=O)(=O)c1cccc3ccccc13)CO2` [Example 66, (3R)-7-cyclobutyl-4-methoxy-N-(naphthalene-1-sulfonyl)-2,3-dihydro-1-benzofuran-3-carboxamide], the “Maximum % activity (with co-corrector)” value is listed as “+++ (≥350)”. Moreover, under setting [1], the EC50 is less than 3 µM. The same molecule yielded an Emax under setting [2] not below 150%. In addition, the EC50 under setting [3] is less than 3 µM.

For `COc1ccc(Br)c2c1[C@@H](C(=O)NS(=O)(=O)c1cccc3cnn(C)c13)CCO2` [Example 69, (4S)-8-bromo-5-methoxy-N-(1-methyl-1H-indazole-7-sulfonyl)-3,4-dihydro-2H-1-benzopyran-4-carboxamide], the “Maximum % activity (with co-corrector)” value is “++ (≥150 and <350)”. The EC50 under setting [1] was in the range of 3 to 10 µM. Also, under setting [2], the Emax lay in the range of 50 to 150%. Besides, the EC50 under setting [3] lay in the range of 3 to 10 µM.

As for `COc1ccc(Br)c2c1[C@H](C(=O)NS(=O)(=O)c1cccc3cnn(C)c13)CCO2` [Example 70, (4R)-8-bromo-5-methoxy-N-(1-methyl-1H-indazole-7-sulfonyl)-3,4-dihydro-2H-1-benzopyran-4-carboxamide], the “Maximum % activity (with co-corrector)” value is listed as “+++ (≥350)”. Besides, under setting [1], the EC50 was less than 3 µM. The Emax under setting [2] was not below 150%. For the same molecule, under setting [3], the EC50 is less than 3 µM.

For `COc1ccc(Br)c2c1[C@@H](C(=O)NS(=O)(=O)c1cccc3ncccc13)CC(C)(C)O2` [Example 71, (4S)-8-bromo-5-methoxy-2,2-dimethyl-N-(quinoline-5-sulfonyl)-3,4-dihydro-2H-1-benzopyran-4-carboxamide], the “Maximum % activity (with co-corrector)” value is “+++ (≥350)”. Also, the EC50 under setting [1] was in the range of 3 to 10 µM. Under setting [2], the Emax was not below 150%. Also, the EC50 under setting [3] was less than 3 µM.

Consider `COc1ccc(Br)c2c1[C@H](C(=O)NS(=O)(=O)c1cccc3ncccc13)CC(C)(C)O2` [Example 72, (4R)-8-bromo-5-methoxy-2,2-dimethyl-N-(quinoline-5-sulfonyl)-3,4-dihydro-2H-1-benzopyran-4-carboxamide], for which the “Maximum % activity (with co-corrector)” value was “+++ (≥350)”. Moreover, under setting [1], the EC50 is less than 3 µM. The molecule further displayed an Emax under setting [2] not below 150%. For the same molecule, the EC50 under setting [3] is less than 3 µM.

`COc1ccc(C2CCC2)c2c1[C@@H](C(=O)NS(=O)(=O)c1cccc3nc(C)ccc13)CCO2` [Example 76, (4S)-8-cyclobutyl-5-methoxy-N-(2-methylquinoline-5-sulfonyl)-3,4-dihydro-2H-1-benzopyran-4-carboxamide]: the “Maximum % activity (with co-corrector)” value is listed as “+++ (≥350)”. The EC50 under setting [1] is 3 to 10 µM. The Emax under setting [2] was not below 150%. Also, the EC50 under setting [3] was 3 to 10 µM.

Regarding `COc1ccc(C2CCC2)c2c1[C@H](C(=O)NS(=O)(=O)c1cccc3nc(C)ccc13)CCO2` [Example 77, (4R)-8-cyclobutyl-5-methoxy-N-(2-methylquinoline-5-sulfonyl)-3,4-dihydro-2H-1-benzopyran-4-carboxamide], the “Maximum % activity (with co-corrector)” value is given as “+++ (≥350)”. Under setting [1], the EC50 is 3 to 10 µM. Further, under setting [2], the Emax is not below 150%. Further, under setting [3], the EC50 was less than 3 µM.

Turning to `COc1ccc(Br)c2c1C(C(=O)NS(=O)(=O)c1cccc3ccccc13)OCC2` (stereo not drawn) [Example 78, 5-bromo-8-methoxy-N-(naphthalene-1-sulfonyl)-3,4-dihydro-1H-2-benzopyran-1-carboxamide], the “Maximum % activity (with co-corrector)” value is recorded as “+++ (≥350)”. For the same molecule, the EC50 under setting [1] was less than 3 µM. This molecule also registered an Emax under setting [2] not below 150%. The EC50 under setting [3] is less than 3 µM.

As for `COc1ccc(C2CCC2)c2c1C(C(=O)NS(=O)(=O)c1cccc3ccccc13)OCC2` (stereo not drawn) [Example 79, 5-cyclobutyl-8-methoxy-N-(naphthalene-1-sulfonyl)-3,4-dihydro-1H-2-benzopyran-1-carboxamide], the “Maximum % activity (with co-corrector)” value is “+++ (≥350)”. In addition, under setting [1], the EC50 was in the range of 3 to 10 µM. Besides, the Emax under setting [2] is not below 150%. Under setting [3], the EC50 was less than 3 µM.

Consider `COc1ccc(C2CCC2)c2c1C(C(=O)NS(=O)(=O)c1cccc3ncccc13)CO2` (stereo not drawn) [Example 80, 7-cyclobutyl-4-methoxy-N-(quinoline-5-sulfonyl)-2,3-dihydro-1-benzofuran-3-carboxamide], for which the “Maximum % activity (with co-corrector)” value is on record as “+++ (≥350)”. Moreover, under setting [1], the EC50 was less than 3 µM. In addition, the Emax under setting [2] was not below 150%. The EC50 under setting [3] was less than 3 µM.

For `COc1ccc(C2CCC2)c2c1C(C(=O)NS(=O)(=O)c1cccc3ncccc13)OCC2` (stereo not drawn) [Example 81, 5-cyclobutyl-8-methoxy-N-(quinoline-5-sulfonyl)-3,4-dihydro-1H-2-benzopyran-1-carboxamide], the “Maximum % activity (with co-corrector)” value is on record as “+++ (≥350)”. In addition, the EC50 under setting [1] was 3 to 10 µM. Further, the Emax under setting [2] is not below 150%. In addition, the EC50 under setting [3] is less than 3 µM.

`COc1ccc(C2CCC2)c2c1C(C(=O)NS(=O)(=O)c1cccc3c1CCCN3)CCO2` (stereo not drawn) [Example 85, 8-cyclobutyl-5-methoxy-N-(1,2,3,4-tetrahydroquinoline-5-sulfonyl)-3,4-dihydro-2H-1-benzopyran-4-carboxamide]: the “Maximum % activity (with co-corrector)” value was “+++ (≥350)”. Moreover, the EC50 under setting [1] was less than 3 µM. The Emax under setting [2] is not below 150%. In addition, under setting [3], the EC50 was less than 3 µM.

Turning to `COc1ccc(C2CCC2)c2c1[C@H](C(=O)NS(=O)(=O)c1cccc3ncccc13)CC(C)(C)O2` [Example 86, (4R)-8-cyclobutyl-5-methoxy-2,2-dimethyl-N-(quinoline-5-sulfonyl)-3,4-dihydro-2H-1-benzopyran-4-carboxamide], the “Maximum % activity (with co-corrector)” value is given as “+++ (≥350)”. Further, the EC50 under setting [1] is less than 3 µM. The same molecule came in with an Emax under setting [2] not below 150%. Further, the EC50 under setting [3] was less than 3 µM.

On to `COc1ccc(C2CCC2)c2c1C(C(=O)NS(=O)(=O)c1cccc3ncn(C)c13)CO2` (stereo not drawn) [Example 87, 7-cyclobutyl-4-methoxy-N-(1-methyl-1H-benzimidazole-7-sulfonyl)-2,3-dihydro-1-benzofuran-3-carboxamide], for which the “Maximum % activity (with co-corrector)” value is “+++ (≥350)”. Moreover, under setting [1], the EC50 was less than 3 µM. This molecule also yielded an Emax under setting [2] not below 150%. Also, the EC50 under setting [3] is less than 3 µM.

On to `COc1ccc(C2CCC2)c2c1C(C(=O)NS(=O)(=O)c1cccn3nccc13)CO2` (stereo not drawn) [Example 88, 7-cyclobutyl-4-methoxy-N-(pyrazolo[1,5-a]pyridine-4-sulfonyl)-2,3-dihydro-1-benzofuran-3-carboxamide], for which the “Maximum % activity (with co-corrector)” value is recorded as “+++ (≥350)”. Moreover, the EC50 under setting [1] was 3 to 10 µM. The molecule also showed an Emax under setting [2] not below 150%. In addition, the EC50 under setting [3] was less than 3 µM.

For the molecule `COc1ccc(C2CCC2)c2c1C(C(=O)NS(=O)(=O)c1cccc3c1NCCC3)CO2` (stereo not drawn) [Example 90, 7-cyclobutyl-4-methoxy-N-(1,2,3,4-tetrahydroquinoline-8-sulfonyl)-2,3-dihydro-1-benzofuran-3-carboxamide], the “Maximum % activity (with co-corrector)” value was “+++ (≥350)”. The EC50 under setting [1] lay within 3 to 10 µM. The molecule also registered an Emax under setting [2] not below 150%. For the same molecule, the EC50 under setting [3] is less than 3 µM.

Turning to `COc1ccc(C2CCC2)c2c1[C@@H](C(=O)NS(=O)(=O)c1cccc3c1CCCN3)CCO2` [Example 91, (4S)-8-cyclobutyl-5-methoxy-N-(1,2,3,4-tetrahydroquinoline-5-sulfonyl)-3,4-dihydro-2H-1-benzopyran-4-carboxamide], the “Maximum % activity (with co-corrector)” value is “+++ (≥350)”. The EC50 under setting [1] is 3 to 10 µM. Besides, the Emax under setting [2] was not below 150%. Further, the EC50 under setting [3] was in the range of 3 to 10 µM.

For `COc1ccc(C2CCC2)c2c1[C@H](C(=O)NS(=O)(=O)c1cccc3c1CCCN3)CCO2` [Example 92, (4R)-8-cyclobutyl-5-methoxy-N-(1,2,3,4-tetrahydroquinoline-5-sulfonyl)-3,4-dihydro-2H-1-benzopyran-4-carboxamide], the “Maximum % activity (with co-corrector)” value was “+++ (≥350)”. Besides, the EC50 under setting [1] is less than 3 µM. Moreover, the Emax under setting [2] was not below 150%. The EC50 under setting [3] is less than 3 µM.

For `COc1ccc(C2CCC2)c2c1C(C(=O)NS(=O)(=O)c1cccc3c1CCCN3)CC(C)(C)O2` (stereo not drawn) [Example 93, 8-cyclobutyl-5-methoxy-2,2-dimethyl-N-(1,2,3,4-tetrahydroquinoline-5-sulfonyl)-3,4-dihydro-2H-1-benzopyran-4-carboxamide], the “Maximum % activity (with co-corrector)” value is “+++ (≥350)”. In addition, the EC50 under setting [1] was less than 3 µM. Under setting [2], the maximal response (Emax) was not below 150%. Besides, the EC50 under setting [3] is less than 3 µM.

What is called EC50 is the concentration needed to bring the measured effect to its halfway point. The Emax is the maximal effect, on the per cent scale that the assay sets.

The values are drawn from patent US10428017B2, “Modulators of the cystic fibrosis transmembrane conductance regulator protein and methods of use” (AbbVie S.à.r.l., priority 2017, dated 2019).
